Values of other authors, collected in patent US10688050B1 (Synthon B.V., priority 2018, dated 2020).
Where two headings read alike, the source gives them in different places.

Assays:
[1] = not given; remark: listed apart in the source

solubility (BCS)	solubility ([1]; pH 1.2)	solubility ([1]; pH range from 3 to 8)	Compound
low	–	–	C=CC(=O)N1CCC[C@@H](n2nc(-c3ccc(Oc4ccccc4)cc3)c3c(N)ncnc32)C1 [Ibrutinib, 1-[(3R)-3-[4-amino-3-(4-phenoxyphenyl)-1H-pyrazolo[3,4-d]pyrimidin-1-yl]piperidin-1-yl]prop-2-en-1-one]
–	slightly soluble	practically insoluble	C=CC(=O)N1CCC[C@@H](n2nc(-c3ccc(Oc4ccccc4)cc3)c3c(N)ncnc32)C1 [ibrutinib form A]
